Assay results from the NIST ThermoML archive (doi:10.1021/je049950g).
Numbers after ± are expanded uncertainties.

Conditions: Liquid

SMILES | vapor or sublimation pressure (348.15 K) [kPa] | vapor or sublimation pressure (353.15 K) [kPa] | vapor or sublimation pressure (363.15 K) [kPa] | vapor or sublimation pressure (368.15 K) [kPa] | vapor or sublimation pressure (373.15 K) [kPa] | vapor or sublimation pressure (378.15 K) [kPa] | vapor or sublimation pressure (388.15 K) [kPa] | vapor or sublimation pressure (393.15 K) [kPa] | vapor or sublimation pressure (398.15 K) [kPa] | vapor or sublimation pressure (403.15 K) [kPa] | vapor or sublimation pressure (408.15 K) [kPa] | vapor or sublimation pressure (413.15 K) [kPa] | vapor or sublimation pressure (418.15 K) [kPa] | vapor or sublimation pressure (423.15 K) [kPa] | also measured
CC1COC(=O)O1 (stereo not given) [4-methyl-1,3-dioxolan-2-one] | 0.2509 ± 0.024 | 0.3277 ± 0.029 | 0.5553 ± 0.043 | 0.7206 ± 0.053 | 0.9231 ± 0.066 | 1.167 ± 0.081 | 1.856 ± 0.086 | 2.284 ± 0.092 | 2.826 ± 0.099 | 3.482 ± 0.11 | 4.265 ± 0.12 | 5.153 ± 0.13 | 6.226 ± 0.14 | 7.454 ± 0.16 | vapor or sublimation pressure (358.15 K): 0.4377 ± 0.035 kPa; vapor or sublimation pressure (428.15 K): 8.959 ± 0.18 kPa; vapor or sublimation pressure (433.15 K): 10.78 ± 0.21 kPa; vapor or sublimation pressure (438.15 K): 12.69 ± 0.23 kPa; vapor or sublimation pressure (443.15 K): 14.81 ± 0.26 kPa; vapor or sublimation pressure (448.15 K): 17.81 ± 0.3 kPa; vapor or sublimation pressure (453.15 K): 20.5 ± 0.34 kPa; vapor or sublimation pressure (458.15 K): 24.08 ± 0.39 kPa; vapor or sublimation pressure (463.15 K): 27.96 ± 0.44 kPa; vapor or sublimation pressure (468.15 K): 33.01 ± 0.51 kPa; vapor or sublimation pressure (473.15 K): 37.77 ± 0.56 kPa
CC(=O)N(C)C [N,N-dimethylethanamide] | 4.135 ± 0.031 | 5.192 ± 0.037 | 7.995 ± 0.046 | 9.806 ± 0.054 | 11.98 ± 0.063 | 14.52 ± 0.074 | 21.01 ± 0.1 | 25.03 ± 0.12 | 29.69 ± 0.13 | 35.02 ± 0.15 | 41.11 ± 0.18 | 48.06 ± 0.2 | 55.91 ± 0.23 | 64.78 ± 0.26 | vapor or sublimation pressure (298.15 K): 0.2936 ± 0.0067 kPa; vapor or sublimation pressure (303.15 K): 0.3925 ± 0.0082 kPa; vapor or sublimation pressure (308.15 K): 0.5179 ± 0.01 kPa; vapor or sublimation pressure (313.15 K): 0.6782 ± 0.013 kPa; vapor or sublimation pressure (318.15 K): 0.8946 ± 0.016 kPa; vapor or sublimation pressure (323.15 K): 1.163 ± 0.02 kPa; vapor or sublimation pressure (328.15 K): 1.526 ± 0.021 kPa; vapor or sublimation pressure (333.15 K): 1.983 ± 0.023 kPa; vapor or sublimation pressure (338.15 K): 2.556 ± 0.025 kPa; vapor or sublimation pressure (343.15 K): 3.27 ± 0.028 kPa; vapor or sublimation pressure (383.15 K): 17.5 ± 0.086 kPa
